Source: the supplement of paper PMC10307832

Legend:
Experiment in all cases: relative viability (nuclei count vs DMSO), 5 days (fraction); higher = more cells survive
Motesanib + Vorinostat = compound: CC1(C)CNc2cc(NC(=O)c3cccnc3NCc3ccncc3)ccc21 [Motesanib] + O=C(CCCCCCC(=O)Nc1ccccc1)NO [Vorinostat] (partner 1 µM)
How it was run: (§1)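 Lung cancer cell lines were seeded in 1536-well plates and dosed by pin tool the next day, with either a single drug or a fixed anchor-drug dose combined with five library-drug doses (not always all listed) spaced in √10 steps. Five days later, one step fixed the cells and stained their nuclei (final 0.05% Triton X-100, 1% formaldehyde, 1 ug/ml Hoechst), and nuclei were counted on 4× images. Relative viability is the nuclei count in treated wells divided by the count in vehicle wells, and each value is the median of duplicate plates.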

Motesanib + Phenformin = compound: CC1(C)CNc2cc(NC(=O)c3cccnc3NCc3ccncc3)ccc21 [Motesanib] + N=C(N)NC(=N)NCCc1ccccc1 [Phenformin] (partner 250 µM)
How it was run: as §1

[1] = compound: C[C@@]1(C(=O)Nc2ccc(F)nc2)CCCN1c1nc(Nc2cc(C3CC3)n[nH]2)c2cccn2n1 + O=C(CCCCCCC(=O)Nc1ccccc1)NO [Vorinostat] (partner 1 µM)
How it was run: as §1

[2] = compound: C[C@@]1(C(=O)Nc2ccc(F)nc2)CCCN1c1nc(Nc2cc(C3CC3)n[nH]2)c2cccn2n1 + CS(=O)(=O)CCNCc1ccc(-c2ccc3ncnc(Nc4ccc(OCc5cccc(F)c5)c(Cl)c4)c3c2)o1 [Lapatinib] (partner 2 µM)
How it was run: as §1

Cell Line	relative viability (Motesanib + Vorinostat; first compound 0.01 µM)	relative viability (Motesanib + Vorinostat; first compound 0.03162 µM)	relative viability (Motesanib + Vorinostat; first compound 0.1 µM)	relative viability (Motesanib + Vorinostat; first compound 1 µM)	relative viability (Motesanib + Phenformin; first compound 0.01 µM)	relative viability (Motesanib + Phenformin; first compound 0.03162 µM)	relative viability (Motesanib + Phenformin; first compound 0.1 µM)	relative viability (Motesanib + Phenformin; first compound 0.3162 µM)	relative viability (Motesanib + Phenformin; first compound 1 µM)	relative viability ([1]; first compound 0.04 µM)	relative viability ([1]; first compound 0.1265 µM)	relative viability ([1]; first compound 0.4 µM)	relative viability ([1]; first compound 1.265 µM)	relative viability ([2]; first compound 0.04 µM)	relative viability ([2]; first compound 0.1265 µM)	relative viability ([2]; first compound 0.4 µM)	relative viability ([2]; first compound 1.265 µM)	relative viability (Motesanib + Vorinostat; first compound 0.3162 µM)
HCC-78	0.429	0.467	0.494	0.413	0.605	0.73	0.715	0.822	0.707	0.33	0.491	0.245	0.327	0.826	0.476	0.186	0.186	
IA-LM	0.91	0.936	0.953	0.767						0.914	0.999	0.836	0.928	0.702	0.935	0.647	0.601	0.935
NCI-H322M	0.962	0.88	0.871	0.849	0.748	0.823	0.806	0.798	0.791	0.794	0.688	0.638	0.64	0.533	0.441	0.374	0.341	1.03
NCI-H3122	0.962	1.05	1.08	1	0.351	0.338	0.409	0.427	0.375	0.91	0.972	0.916	0.879	0.94	1.03	0.958	1.03	1.12
COR-L23	0.45	0.387	0.53	0.459	0.468	0.456	0.494	0.531	0.43	0.345	0.323	0.115	0.109	1.12	0.957	0.994	0.423	0.44
NCI-H2087			0.561	0.791	0.475	0.411	0.575	0.489	0.484	0.635	0.774	0.473	0.357	1.09	0.958	0.88	0.945	0.764
LC-2-ad	0.694	0.694	0.811	0.709	0.531	0.664	0.566	0.566	0.534	0.66	0.554	0.526	0.186	0.904	0.759	0.745	0.32	0.808
NCI-H1915	0.603	0.489	0.479	0.527	0.395	0.362	0.249	0.375	0.357	0.54	0.519	0.475	0.492	0.964	0.999	1.01	0.994	0.544
NCI-H1793	0.836	0.776	0.725	0.757	0.295	0.313	0.307	0.39	0.362	0.79	0.613	0.507	0.202	0.801	0.469	0.568	0.53	0.892
NCI-H2023	0.729	0.606	0.615	0.723	0.387	0.297	0.443	0.421	0.463	0.75	0.201	0.419	0.127	0.722	0.542	0.259	0.236	0.838
COR-L 105	0.861	0.866	0.81	0.819	0.485	0.499	0.538	0.573	0.463	0.845	0.611	0.579	0.604	0.344	0.324	0.28	0.233	1.03
NCI-H1792					0.202		0.367	0.258	0.243					0.82	0.412	0.546	0.696	
ChaGo-K-1	0.745	0.764	0.745	0.748	0.473	0.436	0.509	0.499	0.528	0.713	0.636	0.626	0.671					0.818
NCI-H2342	0.702	0.77	0.715	0.751	0.448	0.588	0.807	0.562	0.662	0.803	0.708	0.696	0.582					0.704
NCI-H1299														1.01	1.03	0.964	0.967	
SW 900	0.542	0.404	0.574	0.59	0.58	0.599	0.552	0.621	0.739	0.557	0.426	0.432	0.468					0.649
NCI-H1648	0.314			0.421						0.363	0.332	0.221	0.443					0.557
NCI-H522	0.89	0.927	0.92	1.05	0.644	0.634	0.581	0.582	0.667	0.864	0.809	0.69	0.875					0.909
A549					0.0998	0.109	0.165	0.178	0.247					0.648	0.477	0.348	0.103	
NCI-H1563					0.617	0.598	0.697	0.715	0.655					1.1	0.921	0.755	0.723	
LCLC-103H	0.756	0.843	0.815	0.762	0.338	0.298	0.294	0.369	0.37	0.763	0.62	0.593	0.563					1.02
NCI-H441	0.527	0.697	0.7	0.792	0.895	0.873	0.845	0.913	0.822	0.55	0.3	0.397	0.511					0.764
